Some test systems named below: SN12C renal; HOP-62 NSCLC; RPMI-8226 leukemia; TK-10 renal; HCT-116 colon; CCRF-CEM leukemia; 786-0 renal; SW-620 colon; NCI-H522 lung; OVCAR-3 ovarian; MALME-3M melanoma; HT29 colon.
What all share (assay): NCI-60 cell line screen, 48 h

The record followed here is PubChem BioAssay (NCI).

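Values below derive from 48-hour exposures of cells grown in 96-well plates, with endpoints linearly interpolated between the two concentrations bracketing the appropriate inhibition level. At the TGI there is no net growth.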 Bounds are passed on as bounds.

Take `CC(=O)c1ccc2c(c1)CC1(C2)Cc2cc3c(cc2C1)C(=O)CC3` (configuration not stated): the TGI in the assay with SN12C renal was over 100 µM; in the assay with HOP-62 NSCLC it was 16.1 µM; in the assay on RPMI-8226 leukemia it was 3.61 µM; in the assay on TK-10 renal it was over 83 µM; in the assay with HCT-116 colon it was 8.8 µM; in the assay with CCRF-CEM leukemia, 3.87 µM. In addition, the TGI with 786-0 renal is 20.9 µM; with SW-620 colon it was over 100 µM; in the assay on NCI-H522 lung, 14.2 µM; with OVCAR-3 ovarian, 5.96 µM; in the assay with MALME-3M melanoma, 25.7 µM; in the assay on HT29 colon it was 6.32 µM.
